Several values for one entry are separate records, joined by “and”; a condition that tells them apart may be missing. Equal entries are not always repeated.
Legend:
recombinant SmCB1 = recombinant SmCB1 (Schistosoma mansoni, UniProt Q8MNY2, T185A/T300A); test: SmCB1 kinetic inhibition assay with fluorogenic substrate Cbz-Phe-Arg-AMC; type: biochemical; details: substrate Cbz-Phe-Arg-AMC; for Ki: SmCB1 inhibition Ki; for SmCB1 inhibition k2nd (second-order rate constant): slow-binding azadipeptide nitriles
Chain of recombinant SmCB1 (Q8MNY2 87-340 T185A/T300A): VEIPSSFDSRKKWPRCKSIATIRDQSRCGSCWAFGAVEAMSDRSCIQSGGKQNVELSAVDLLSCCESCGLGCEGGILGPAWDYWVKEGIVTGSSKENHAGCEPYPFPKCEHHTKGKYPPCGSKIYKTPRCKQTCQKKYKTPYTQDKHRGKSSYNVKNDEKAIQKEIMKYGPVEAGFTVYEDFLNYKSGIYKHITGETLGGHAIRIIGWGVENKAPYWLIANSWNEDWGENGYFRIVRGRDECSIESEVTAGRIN
Procedure: Inhibition measurements were performed in triplicates in 96-well microplates (100 μL assay volume) at 37 °C. SmCB1 (20–40 pM) was added to a mixture of the fluorogenic substrate Cbz-Phe-Arg-AMC (20 μM) and an inhibitor (0–100 μM) in 0.1 M sodium acetate, pH 5.5, containing 2.5 mM dithiothreitol and 0.1% PEG 6000. The substrate hydrolysis was monitored in an Infinite M1000 microplate reader (Tecan, Männedorf, Switzerland) at excitation and emission wavelengths of 360 and 465 nm, respectively, for up to 15 and 60 min for fast- and slow-binding inhibitors, respectively. […] For slow-binding inhibitors, an observed first-order rate constant kobs was calculated at each inhibitor concentration by fitting the progress curve to the equation P = vst + (vi – vs)(1 – […])/kobs + d, where P is the product formation, vs is the steady-state velocity, t is the reaction time, vi is the initial velocity, and d is the offset. The inhibition constant Ki′ was determined by nonlinear regression using the equation vs/v0 = 1/(1 + [I]/Ki′). The true inhibition constants Ki were then calculated using the equation Ki = Ki′/(1 + [S]/Km), where [S] is the substrate concentration and Km is the Michaelis constant. The apparent second-order rate constant k2nd′ was determined by fitting to the linear equation kobs = k2nd′[I] + koff, where koff is the first-order rate constants for the dissociation of the enzyme–inhibitor complex and the true constant k2nd was calculated by the correction k2nd = k2nd′(1 + [S]/Km). […] In none of the assay systems did the final concentration of DMSO exceed 1.5%.

[1] = system: S. mansoni newly transformed schistosomula (NTS); test: Schistosome phenotypic assay; type: cell-based, Schistosoma mansoni; details: for Descriptors Day 1 (phenotypic changes) / Descriptors Day 2 (phenotypic changes): 10 µM inhibitor; for Severity score Day 1 / Severity score Day 2 / Severity score Day 3 / Severity score Day 4: 10 μM inhibitor, scale 0 (no effect) to 4 (severe); for Severity score Day 1: 24 h; for Severity score Day 2: 48 h
Procedure: Newly transformed schistosomula (NTS) of S. mansoni were prepared by mechanically transforming infective larvae (cercariae) as described previously.[70],[71] NTS (200–300 parasites) were incubated in 200 μL of Basch Medium 169 containing 5% FBS, 100 U mL^–1 penicillin, and 100 μg mL^–1 streptomycin at 5% CO2 and 37 °C.[70],[72],[73] Inhibitors were added at the final concentration of 10 μM,[20],[69] and changes in phenotypes were observed every 24 h for up to 4 days. A constrained nomenclature of “descriptors” is used to record the multiple and dynamic changes in movement, shape, and translucence of which the schistosome parasite is capable (Table S3).[70] These descriptors are then converted into an ordinal “severity score” system from 0 (no effect) to 4 (maximum effect), which allows for the relative comparison of compound effects, as described.[74],[75] Images of NTS were captured using a Zeiss Axiovert 40 C inverted microscope (10× objective) and a Zeiss AxioCam MRc digital camera controlled by AxioVision 40 (v. 4.8.1.0) software.

[2] = Cytotoxicity, XTT test, HepG2; type: cell-based; details: human, % viability vs. untreated cells, read-out: Cell line viability after 72 h; for viability at 72 h, 1 µM: HepG2, 1 µM; for viability at 72 h, 10 µM: HepG2, 10 µM
Procedure: (§1) T able S4. […]
(§2) Cell line viability after 72 h (%)a
(§3) Inhibitor 1 µM 10 µM 1 µM 10 µM
(§4) aCytotoxicity of the inhibitors towards human cell lines are expressed as % viability vs. untreated cells. Cells were treated with
(§5) the indicated concentration of the compounds for 72 h and assayed by means of the XTT test (as described previously 12).
(§6) Standard deviation values were within 10% of the mean of tetraplicates. […]

[3] = Cytotoxicity, XTT test, HUVEC; type: cell-based; details: human, % viability vs. untreated cells, read-out: Cell line viability after 72 h
Procedure: as §1, §2, §3, §4, §5, §6

[4] = kinetic activity assay, pH 5.5, 37 °C
[5] = Table S2, carbadipeptide nitriles

| SMILES | Ki (recombinant SmCB1; [4]) [nM] | SmCB1 inhibition k2nd (second-order rate constant) (recombinant SmCB1) | Descriptors Day 1 (phenotypic changes) [1] | Descriptors Day 2 (phenotypic changes) [1] | Severity score Day 1 [1] | Severity score Day 2 [1] | Severity score Day 3 [1] | Severity score Day 4 [1] | viability at 72 h, 1 µM [2] [%] | viability at 72 h, 10 µM [2] [%] | viability at 72 h, 1 µM [3] [%] | viability at 72 h, 10 µM [3] [%] | Ki (recombinant SmCB1; [5]) [nM] |
| --- | --- | --- | --- | --- | --- | --- | --- | --- | --- | --- | --- | --- | --- |
| CC(C)CC(NC(=O)NCc1ccccc1)C(=O)N(C)N(C)C#N (centres unmarked) [Compound 3a] | 6.1 ± 0.7 | 20.4 10^3 M^-1 s^-1 and 20.4 ± 1.9 10^3 M^-1 s^-1 | R, Unc, Dark | Deg | 3 | 4 | 4 | 4 | 82 | 83 | 106 | 90 | – |
| CC(C)C[C@H](NC(=O)c1ccc(-c2noc(-c3cccs3)n2)cc1)C(=O)N(C)N(C)C#N [Compound 5a] | 4.8 ± 0.3 | 29.0 10^3 M^-1 s^-1 and 29.0 ±1.4 10^3 M^-1 s^-1 | Deg | Deg | 2 | 4 | 4 | 4 | 91 | 101 | 91 | 66 | – |
| CN(C(=O)[C@H](Cc1ccccc1)NC(=O)OCc1ccccc1)N(C#N)CCc1ccccc1 [Compound 8a] | 4.8 ± 0.2 | 5.2 10^3 M^-1 s^-1 and 5.2 ± 0.4 10^3 M^-1 s^-1 | Deg | – | 4 and 4/4 | 4 and 4/4 | 4 | 4 | 102 | 83 | 101 | 44 | – |
| C[C@@H](C#N)NC(=O)[C@H](Cc1ccccc1)NC(=O)OCc1ccccc1 [Compound 8c] | – | – | – | – | 0 | 0 | 0 | 0 | – | – | – | – | > 10000 |
| CN(CC#N)C(=O)[C@H](Cc1ccccc1)NC(=O)OCc1ccccc1 [Compound 9c] | > 100000 | – | – | – | 0 | 0 | 0 | 0 | – | – | – | – | > 10000 |
| CN(C(=O)[C@H](Cc1ccccc1)NC(=O)OCc1ccccc1)N(C#N)Cc1ccccc1 [Compound 10a] | 48.9 ± 4.7 | 1.5 ± 0.1 10^3 M^-1 s^-1 | R, Unc | Deg | 2 | 4 | 4 | 4 | – | – | – | – | – |
| C[C@@H](C#N)N(C)C(=O)[C@H](Cc1ccccc1)NC(=O)OCc1ccccc1 [Compound 10c] | > 100000 | – | – | – | 0 | 0 | 0 | 0 | – | – | – | – | > 10000 |
| CCC(C)C(NC(=O)OCc1ccccc1)C(=O)N(C)N(C)C#N (centres unmarked) [Compound 12a] | 71.7 ± 4.4 | – | Deg | – | 4 and 4/4 | 4 and 4/4 | 4 | 4 | – | – | – | – | – |
| COc1ccc(C[C@H](NC(=O)OCc2ccccc2)C(=O)N(C)N(C)C#N)cc1 [Compound 13a] | 80.6 ± 7.1 | – | Deg | Deg | 4 and 4/4 | 4 and 4/4 | 4 | 4 | – | – | – | – | – |
| CC(C)[C@H](NC(=O)OCc1ccccc1)C(=O)N(C)N(C)C#N [Compound 14a] | 88.3 ± 10.4 | – | R, Unc, Dark | Deg | 3 | 4 | 4 | 4 | – | – | – | – | – |

Source: paper PMC7802074, “Azanitrile Inhibitors of the SmCB1 Protease Target Are Lethal to Schistosoma mansoni: Structural and Mechanistic Insights into Chemotype Reactivity” (ACS Infectious Diseases, 2020)
